From ChEMBL document CHEMBL1201862, “PubChem BioAssay data set” (2004) come the findings set out here.

Among the test systems are KM12; NCI-H226; ACHN; K562; Hs-578T; SW-620; HCT-116; SR; U-251; CCRF-CEM; NCI-H460; SF-539; SK-MEL-2; IGROV-1; HL-60; PC-3; OVCAR-8; SK-MEL-5; LOX IMVI; A498.
Common to all, as to experiment: NCI tumour cell line growth inhibition, 48 h

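Five concentrations, 48 hours, 96-well plates. GI50 marks 50% less growth.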 Activity calls are given as the source filed them. No stated cut-off is given here; in the data, active = GI50 up to about 1.1 µM and inactive = higher.

Consider `CCCCC(=C=C(C)CO)C1CCCN1C(=O)OC(C)(C)C` (stereo not given), for which the GI50 was 18.4 µM (inactive) in the experiment on KM12; 16 µM (inactive) in the experiment on NCI-H226; 24.8 µM (inactive) with ACHN; 17.9 µM (inactive) with K562; 13.8 µM (inactive) in the experiment with Hs-578T; 29.2 µM (inactive) with SW-620. In addition, the GI50 in the experiment on HCT-116 was 15.6 µM (inactive); in the experiment with SR, 15.1 µM (inactive); in the experiment with U-251, 17.1 µM (inactive); with CCRF-CEM, 14.3 µM (inactive); in the experiment with NCI-H460, 16.1 µM (inactive); with SF-539, 16.9 µM (inactive). In addition, the GI50 with SK-MEL-2 is 16.5 µM (inactive); in the experiment on IGROV-1 it was 17.9 µM (inactive); in the experiment on HL-60, 13.4 µM (inactive); with PC-3, 18.5 µM (inactive); in the experiment on OVCAR-8 it was 18.2 µM (inactive); in the experiment with SK-MEL-5, 16.1 µM (inactive). The GI50 in the experiment with LOX IMVI is 16.8 µM (inactive).

On to `O=C1Nc2ccc(S(=O)(=O)NCCO)cc2/C1=C1/Nc2ccccc2C1=O`, for which the GI50 was 0.385 µM (active) with KM12; > 100 µM (inactive) in the experiment on NCI-H226; 6.97 µM (inactive) with ACHN; 4.28 µM (inactive) in the experiment on K562; 6.73 µM (inactive) in the experiment on Hs-578T; 11.9 µM (inactive) in the experiment on SW-620. In addition, the GI50 was 3.13 µM (inactive) in the experiment with HCT-116; 1.01 µM (active) with SR; 3.16 µM (inactive) with U-251; 3.23 µM (inactive) in the experiment on CCRF-CEM; 30.3 µM (inactive) with NCI-H460; 4.16 µM (inactive) in the experiment on SK-MEL-2. Besides, the GI50 is 1.04 µM (active) in the experiment with IGROV-1; 2.53 µM (inactive) with A498; 12.2 µM (inactive) with PC-3; 11 µM (inactive) with OVCAR-8; 12.7 µM (inactive) in the experiment with SK-MEL-5; 42 µM (inactive) in the experiment with LOX IMVI.

In the case of `CCN(CC)c1nc(N(C)C)c2ccc(OC)cc2n1`, the GI50 in the experiment on KM12 is 14.7 µM (inactive); in the experiment with NCI-H226, 14.2 µM (inactive); in the experiment with ACHN, 12.5 µM (inactive); with K562 it was 14 µM (inactive); in the experiment on Hs-578T, 39.9 µM (inactive); in the experiment with SW-620, 7.08 µM (inactive). Moreover, the GI50 in the experiment on HCT-116 is 4.35 µM (inactive); with SR it was 12.7 µM (inactive); in the experiment with U-251 it was 20.2 µM (inactive); in the experiment on NCI-H460 it was 10.3 µM (inactive); in the experiment on SF-539, 16.7 µM (inactive); with SK-MEL-2, 15.9 µM (inactive). Also, the GI50 in the experiment on IGROV-1 is 23.2 µM (inactive); in the experiment with HL-60, 3.64 µM (inactive); in the experiment on PC-3, 17.3 µM (inactive); in the experiment with OVCAR-8, 15.2 µM (inactive); with SK-MEL-5 it was 11.6 µM (inactive); with LOX IMVI, 17.1 µM (inactive).

In the case of `O=C1OC2(c3ccccc31)c1cc(I)c(O)c(I)c1Oc1c2cc(I)c(O)c1I` [ERYTHROSINE], the GI50 was 10.4 µM (inactive) in the experiment on KM12; 37.4 µM (inactive) in the experiment on NCI-H226; 96.8 µM (inactive) in the experiment on ACHN; > 100 µM (inactive) in the experiment with K562; 49.1 µM (inactive) with Hs-578T; > 100 µM (inactive) in the experiment on SW-620. The GI50 with HCT-116 was 72.4 µM (inactive); in the experiment on SR, > 100 µM (inactive); in the experiment with U-251 it was 92.3 µM (inactive); in the experiment on CCRF-CEM, > 100 µM (inactive); in the experiment on NCI-H460, > 100 µM (inactive); in the experiment on SF-539, > 100 µM (inactive). For the same molecule, the GI50 is > 100 µM (inactive) in the experiment on SK-MEL-2; > 100 µM (inactive) in the experiment with IGROV-1; > 100 µM (inactive) in the experiment with PC-3; > 100 µM (inactive) in the experiment with OVCAR-8; > 100 µM (inactive) in the experiment on SK-MEL-5; 76.6 µM (inactive) in the experiment with LOX IMVI.

For `Cc1c(-c2ccccc2)[nH]c2ccc(Cl)cc2c1=O`, the GI50 in the experiment on KM12 was 0.263 µM (active); with NCI-H226 it was 30.4 µM (inactive); with ACHN, 29 µM (inactive); in the experiment with K562 it was 8.87 µM (inactive); in the experiment with Hs-578T it was 30.5 µM (inactive); in the experiment on SW-620 it was 75.2 µM (inactive). The GI50 with HCT-116 was 17.6 µM (inactive); in the experiment with SR it was 12.2 µM (inactive); with U-251, 22.9 µM (inactive); in the experiment with CCRF-CEM, 55.8 µM (inactive); in the experiment with NCI-H460, 0.314 µM (active); in the experiment with SF-539, 22.2 µM (inactive). In addition, the GI50 in the experiment with SK-MEL-2 is 18 µM (inactive); in the experiment on IGROV-1 it was 33.9 µM (inactive); with HL-60, 24.2 µM (inactive); in the experiment with PC-3 it was 47.6 µM (inactive); with OVCAR-8, 22.3 µM (inactive); in the experiment with SK-MEL-5 it was 13.3 µM (inactive). The GI50 with LOX IMVI was 27.9 µM (inactive).

As to `C/C=C\C(CC(=O)NCCC1CN(S(=O)(=O)C(F)(F)F)c2ccccc21)CC(=O)OC` (stereo not given), the GI50 is 26.9 µM (inactive) in the experiment on KM12; 37.6 µM (inactive) in the experiment on ACHN; 51.8 µM (inactive) with K562; 22.6 µM (inactive) in the experiment with Hs-578T; 55.8 µM (inactive) with SW-620; 31.3 µM (inactive) in the experiment with HCT-116. Moreover, the GI50 with SR was > 100 µM (inactive); with U-251, 59.3 µM (inactive); in the experiment with CCRF-CEM it was 26.6 µM (inactive); in the experiment with NCI-H460, 35.6 µM (inactive); in the experiment on SK-MEL-2, 32.1 µM (inactive); in the experiment with IGROV-1, 50 µM (inactive). Also, the GI50 in the experiment with A498 is 62.8 µM (inactive); in the experiment with PC-3, 35.4 µM (inactive); in the experiment on OVCAR-8, 38.8 µM (inactive); in the experiment on SK-MEL-5, 16.9 µM (inactive).

Consider `O=C1NC(N2CCOCC2)=N/C1=C\c1ccccc1`, for which the GI50 with KM12, in the experiment on NCI-H226, in the experiment with ACHN, in the experiment on Hs-578T, with SW-620 and in the experiment on HCT-116 was > 100 µM (inactive) each time. The GI50 in the experiment on SR, in the experiment with U-251, with CCRF-CEM, in the experiment on SF-539, in the experiment with SK-MEL-2 and in the experiment on IGROV-1 was > 100 µM (inactive) each time. Besides, the GI50 in the experiment on HL-60, in the experiment on PC-3, in the experiment on OVCAR-8, in the experiment on SK-MEL-5 and in the experiment on LOX IMVI was > 100 µM (inactive) throughout.

For the molecule `C/C(=N\NC(=O)c1ccccc1O)c1cccc(/C(C)=N/NC(=O)c2ccccc2O)n1`, the GI50 with KM12 is 6.5 µM (inactive); in the experiment on ACHN, 4.27 µM (inactive); in the experiment with K562 it was 15 µM (inactive); in the experiment on Hs-578T, > 65.2 µM (inactive); with SW-620, 5.74 µM (inactive); with SR, 1.89 µM (inactive). Further, the GI50 is 6.71 µM (inactive) in the experiment with NCI-H460; 10.2 µM (inactive) in the experiment on SK-MEL-2; 37.8 µM (inactive) in the experiment with A498; 7.1 µM (inactive) in the experiment on PC-3; 2.13 µM (inactive) in the experiment on OVCAR-8; 6.97 µM (inactive) in the experiment with SK-MEL-5. The GI50 in the experiment with LOX IMVI is 1.7 µM (inactive).

With `CC(ON(C(c1ccccc1)C(C)C)C(C)(C)C)c1ccccc1` (stereo not given), the GI50 was 18.4 µM (inactive) in the experiment with KM12; 19 µM (inactive) in the experiment with NCI-H226; 15.8 µM (inactive) in the experiment with ACHN; 18.9 µM (inactive) in the experiment with K562; 29 µM (inactive) in the experiment with Hs-578T; 16.2 µM (inactive) in the experiment on SW-620. The GI50 with HCT-116 is 14.7 µM (inactive); in the experiment on SR, 23 µM (inactive); in the experiment with U-251, 17 µM (inactive); in the experiment on CCRF-CEM, 19.1 µM (inactive); with NCI-H460, 18.1 µM (inactive); with SF-539, 21.6 µM (inactive). In addition, the GI50 in the experiment on SK-MEL-2 is 18.4 µM (inactive); in the experiment on IGROV-1 it was 23.1 µM (inactive); with HL-60, 18.7 µM (inactive); with PC-3, 33.8 µM (inactive); with OVCAR-8 it was 21.8 µM (inactive); with SK-MEL-5, 14.4 µM (inactive). In addition, the GI50 with LOX IMVI is 18.4 µM (inactive).

With `COCC1OC(S(=O)(=O)c2ccccc2)C(O)C(OC)C1OC` (stereo not given), the GI50 with KM12, in the experiment on NCI-H226, in the experiment on ACHN, in the experiment with K562, in the experiment on Hs-578T and in the experiment with SW-620 was > 100 µM (inactive) throughout. The GI50 in the experiment on HCT-116, with SR, in the experiment on U-251, in the experiment on CCRF-CEM, in the experiment with NCI-H460 and in the experiment on SF-539 was > 100 µM (inactive) throughout. Besides, the GI50 in the experiment on SK-MEL-2, with IGROV-1, with HL-60, with PC-3, in the experiment with OVCAR-8 and with SK-MEL-5 was > 100 µM (inactive) throughout. Also, the GI50 in the experiment with LOX IMVI is > 100 µM (inactive).

Take `COC(=O)C1Cc2c([nH]c3ccccc23)-c2[nH]c3ccccc3c2CC(NC(C)=O)C(=O)NCC(=O)NCC(=O)N1` (stereo not given): the GI50 in the experiment on KM12, in the experiment on NCI-H226, with ACHN, in the experiment on K562, in the experiment with Hs-578T and in the experiment with SW-620 was > 100 µM (inactive) each time. Further, the GI50 in the experiment with HCT-116, with U-251, with CCRF-CEM, with NCI-H460, with SF-539 and in the experiment on SK-MEL-2 was > 100 µM (inactive) throughout. The GI50 in the experiment on IGROV-1, in the experiment on A498, with HL-60, with PC-3, with OVCAR-8 and with SK-MEL-5 was > 100 µM (inactive) throughout. The GI50 with LOX IMVI is > 100 µM (inactive).
